Laboratory results as given in ChEMBL document CHEMBL4152365, “Discovery of DS-6930, a potent selective PPARγ modulator. Part I: Lead identification” (Bioorg Med Chem, 2018).
In brackets after ≈: the same amount, converted by molar mass. Activity calls are given as the source filed them. No cut-off for these calls is given here.

Tests used:
[1] = Half life in cynomolgus monkey at 3 mg/kg, po by LC-MS/MS analysis; assay type: ADME, organism-based, Macaca fascicularis; conditions: in vivo
[2] = target: T1, Peroxisome proliferator-activated receptor alpha (Homo sapiens) (UniProt Q07869); assay: Agonist activity at recombinant human GAL4-DBD fused PPARalpha LBD expressed in COS7 cells at 10 uM after 24 hrs by luciferase reporter gene assay relative to 2-(4-tert-Butylphenoxy)-3-[4-[2-[(4-pyridin-2-ylbenzoyl)amino]ethoxy]; assay type: cell-based
T1 sequence (whole entry): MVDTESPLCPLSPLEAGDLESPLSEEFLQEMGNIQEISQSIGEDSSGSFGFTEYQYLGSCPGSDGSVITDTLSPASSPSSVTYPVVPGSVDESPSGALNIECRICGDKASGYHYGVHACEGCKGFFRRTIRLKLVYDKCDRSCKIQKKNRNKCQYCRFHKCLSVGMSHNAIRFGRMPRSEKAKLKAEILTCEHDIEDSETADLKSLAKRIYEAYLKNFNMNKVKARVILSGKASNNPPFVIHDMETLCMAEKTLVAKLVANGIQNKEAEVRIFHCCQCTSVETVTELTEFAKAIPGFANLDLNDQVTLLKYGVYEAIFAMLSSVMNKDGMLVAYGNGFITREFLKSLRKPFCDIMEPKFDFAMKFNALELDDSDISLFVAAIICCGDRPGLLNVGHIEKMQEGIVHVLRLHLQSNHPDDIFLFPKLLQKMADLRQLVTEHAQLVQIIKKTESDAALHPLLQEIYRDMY

[3] = Clearance in cynomolgus monkey at 1 mg/kg, iv by LC-MS/MS analysis; assay type: ADME, organism-based, Macaca fascicularis; conditions: in vivo
Rattus norvegicus [4] = assay: Glucose-lowering effect in Zucker diabetic fatty rat assessed as reduction in plasma glucose level at 3 mg/kg, po administered once daily for 14 days measured on day 14 post last dose relative to control; assay type: functional; design: scale not given: the % may be the effect or the level left
[5] = AUC (0 to 24 hrs) in Zucker diabetic fatty rat at 3 mg/kg, po dosed once daily for 14 days and followed by additional administeration on day 15; assay type: ADME, organism-based; design: dose 3 mg/kg, time < 24 hr, route oral; conditions: in vivo
[6] = target: T2, Peroxisome proliferator-activated receptor gamma (Homo sapiens, UniProt P37231); assay: Agonist activity at recombinant human GAL4-DBD fused PPARgamma LBD expressed in COS7 cells after 24 hrs by luciferase reporter gene assay; assay type: cell-based
T2 sequence (P37231 whole entry): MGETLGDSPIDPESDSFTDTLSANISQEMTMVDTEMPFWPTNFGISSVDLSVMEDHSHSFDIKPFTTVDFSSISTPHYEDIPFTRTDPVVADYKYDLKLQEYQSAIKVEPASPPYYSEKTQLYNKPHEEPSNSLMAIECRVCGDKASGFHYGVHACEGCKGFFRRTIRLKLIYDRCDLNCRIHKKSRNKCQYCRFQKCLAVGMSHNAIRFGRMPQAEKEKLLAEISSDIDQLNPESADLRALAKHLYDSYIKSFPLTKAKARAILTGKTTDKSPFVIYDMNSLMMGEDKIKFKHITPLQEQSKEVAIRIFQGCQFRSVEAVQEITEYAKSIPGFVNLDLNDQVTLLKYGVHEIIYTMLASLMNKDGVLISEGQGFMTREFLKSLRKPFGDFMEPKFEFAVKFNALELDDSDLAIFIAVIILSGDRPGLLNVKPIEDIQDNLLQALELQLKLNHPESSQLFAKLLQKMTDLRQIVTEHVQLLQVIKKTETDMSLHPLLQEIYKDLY

[7] = Metabolic stability in cynomolgus monkey liver microsomes after 0.5 hrs; assay type: ADME, Macaca fascicularis, microsome; conditions: read-out: Stability
[8] = Metabolic stability in rat liver microsomes after 0.5 hrs; assay type: ADME, microsome; conditions: read-out: Stability
Rattus norvegicus [9] = assay: Toxicity in Zucker diabetic fatty rat assessed as body weight gain at 3 mg/kg, po administered once daily for 14 days relative to control; assay type: organism-based; conditions: in vivo, 336 h
[10] = Aqueous thermodynamic solubility of the compound in pH 6.8 solution up to 4 hrs by HPLC-UV analysis; assay type: physicochemical; conditions: read-out: Therm_solubility
[11] = Plasma concentration in hyperglycemic KK/Ta mouse at 30 mg/kg/day, po administered through diet for 3 days measured on day 3 post last dose; assay type: ADME, organism-based
[12] = Tmax in Zucker diabetic fatty rat at 3 mg/kg, po dosed once daily for 14 days and followed by additional administeration on day 15; assay type: ADME, organism-based; conditions: in vivo
[13] = Oral bioavailability in cynomolgus monkey at 3 mg/kg by LC-MS/MS analysis; assay type: ADME, organism-based, Macaca fascicularis; conditions: in vivo
[14] = Cmax in cynomolgus monkey at 3 mg/kg, po by LC-MS/MS analysis; assay type: ADME, organism-based, Macaca fascicularis; design: dose 3 mg/kg, route oral; conditions: in vivo
[15] = target: T3, Peroxisome proliferator-activated receptor gamma (Homo sapiens) (UniProt P37231); assay: Agonist activity at recombinant human GAL4-DBD fused PPARgamma LBD expressed in COS7 cells at 10 uM after 24 hrs by luciferase reporter gene assay relative to rosiglitazone; assay type: cell-based
T3 sequence (whole entry): T2 sequence (P37231 whole entry)

[16] = Cmax in Zucker diabetic fatty rat at 3 mg/kg, po dosed once daily for 14 days and followed by additional administeration on day 15; assay type: ADME, organism-based; design: dose 3 mg/kg, route oral; conditions: in vivo
[17] = 1-octanol/PBS distribution co-efficient, log D of the compound at […] at pH 7.4 after 30 mins by HPLC-MS/MS analysis; assay type: physicochemical
[18] = Tmax in cynomolgus monkey at 3 mg/kg, po by LC-MS/MS analysis; assay type: ADME, organism-based, Macaca fascicularis; conditions: in vivo
[19] = target: T4, Peroxisome proliferator-activated receptor alpha (Homo sapiens, UniProt Q07869); assay: Agonist activity at recombinant human GAL4-DBD fused PPARalpha LBD expressed in COS7 cells after 24 hrs by luciferase reporter gene assay; assay type: cell-based
T4 sequence (Q07869 whole entry): T1 sequence (whole entry)

[20] = Metabolic stability in human liver microsomes after 0.5 hrs; assay type: ADME, microsome; conditions: read-out: Stability
[21] = AUClast in cynomolgus monkey at 3 mg/kg, po by LC-MS/MS analysis; assay type: ADME, organism-based, Macaca fascicularis; design: dose 3 mg/kg, route oral, time 0 - last; conditions: in vivo
[22] = Volume of distribution at steady state in cynomolgus monkey at 1 mg/kg, iv by LC-MS/MS analysis; assay type: ADME, organism-based, Macaca fascicularis; conditions: in vivo, read-out: Vdss
Mus musculus [23] = assay: Glucose-lowering effect in hyperglycemic KK/Ta mouse assessed as reduction in plasma glucose level at 30 mg/kg/day, po administered through diet for 3 days relative to control; assay type: functional; design: scale not given: the % may be the effect or the level left
Mus musculus [24] = assay: Toxicity in hyperglycemic KK/Ta mouse assessed as body weight gain at 30 mg/kg/day, po administered through diet for 3 days relative to control; assay type: organism-based; conditions: in vivo, 72 h
Rattus norvegicus [25] = assay: Toxicity in Wistar-Imamichi rat assessed as reduction in RBC count at 300 mg/kg, po administered via gavage once daily for 28 days relative to control; assay type: organism-based; design: scale not given: the % may be the effect or the level left; conditions: in vivo, 672 h
Rattus norvegicus [26] = assay: Toxicity in Wistar-Imamichi rat assessed as reduction in RBC count at 30 mg/kg, po administered via gavage once daily for 28 days relative to control; assay type: organism-based; design: scale not given: the % may be the effect or the level left; conditions: in vivo, 672 h
Rattus norvegicus [27] = assay: Toxicity in Wistar-Imamichi rat assessed as clinical abnormality at 30 to 300 mg/kg, po administered via gavage once daily for 28 days; assay type: organism-based; conditions: in vivo, 672 h
Rattus norvegicus [28] = assay: Toxicity in Wistar-Imamichi rat assessed as effect on hemodilution by measuring increase in heart weight at 30 to 300 mg/kg, po administered via gavage once daily for 28 days; assay type: organism-based; conditions: in vivo, 672 h
Rattus norvegicus [29] = assay: Toxicity in Wistar-Imamichi rat assessed as elevation in ALT activity at 30 to 300 mg/kg, po administered via gavage once daily for 28 days; assay type: organism-based; conditions: in vivo, 672 h
Rattus norvegicus [30] = assay: Toxicity in Wistar-Imamichi rat assessed as death at 30 to 300 mg/kg, po administered via gavage once daily for 28 days; assay type: organism-based; conditions: in vivo, 672 h
Rattus norvegicus [31] = assay: Toxicity in Wistar-Imamichi rat assessed as elevation in AST activity at 30 to 300 mg/kg, po administered via gavage once daily for 28 days; assay type: organism-based; conditions: in vivo, 672 h
Rattus norvegicus [32] = assay: Toxicity in Wistar-Imamichi rat assessed as effect on hemodilution by measuring increase in heart weight at 100 mg/kg, po administered via gavage once daily for 28 days; assay type: organism-based; conditions: in vivo, 672 h
Rattus norvegicus [33] = assay: Toxicity in Wistar-Imamichi rat assessed as reduction in RBC count at 30 to 300 mg/kg, po administered via gavage once daily for 28 days; assay type: organism-based; conditions: in vivo, 672 h
Rattus norvegicus [34] = assay: Toxicity in Wistar-Imamichi rat assessed as reduction in RBC count at 100 mg/kg, po administered via gavage once daily for 28 days relative to control; assay type: organism-based; design: scale not given: the % may be the effect or the level left; conditions: in vivo, 672 h
[35] = target: T5, Peroxisome proliferator-activated receptor delta (Homo sapiens) (UniProt Q03181); assay: Agonist activity at PPARdelta (unknown origin) at 10 uM
T5 sequence (whole entry): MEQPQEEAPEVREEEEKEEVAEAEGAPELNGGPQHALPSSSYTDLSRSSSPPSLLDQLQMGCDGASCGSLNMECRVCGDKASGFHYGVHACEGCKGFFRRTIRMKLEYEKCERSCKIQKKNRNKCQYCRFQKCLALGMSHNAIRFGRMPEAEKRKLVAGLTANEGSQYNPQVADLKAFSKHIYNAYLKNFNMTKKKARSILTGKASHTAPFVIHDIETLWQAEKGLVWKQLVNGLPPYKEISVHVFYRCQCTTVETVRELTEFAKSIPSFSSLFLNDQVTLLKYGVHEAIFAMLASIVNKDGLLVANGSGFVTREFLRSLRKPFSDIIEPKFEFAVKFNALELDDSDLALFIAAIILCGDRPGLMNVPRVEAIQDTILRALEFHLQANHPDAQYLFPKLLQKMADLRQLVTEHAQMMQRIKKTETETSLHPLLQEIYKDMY

Row | half-life [1] [h] | Emax [2] [%] | clearance [3] [mL/min/kg] | AUC at 24 h [5] [ng·h/mL] | EC50 [6] [nM] | remaining at 0.5 h [7] [%] | remaining at 0.5 h [8] [%] | solubility thermodynamic at 4 h [10] [µg/mL] | concentration at 72 h [11] [ng/mL] | Tmax [12] [h] | bioavailability [13] [%] | Cmax [14] [ng/mL] | Emax [15] [%] | Cmax [16] [ng/mL] | logD at 0.5 h [17] | Tmax [18] [h] | EC50 [19] [nM] | remaining at 0.5 h [20] [%] | SMILES | Activity (Rattus norvegicus [4]) [%] | Activity (Rattus norvegicus [9]) [%] | also measured
1 | 13.8 | 40 | 1.8 | 5530 | 4.4 | 91 | 100 | 4.4 (≈ 10.8 µM) | 470 | 2 | 28 | 2060 | 80 | 790 | 2.7 | 1.5 | > 10000 | 91 | Cc1ccc(Oc2ccc3nc(COc4cccc(C(=O)O)c4)n(C)c3c2)cc1F | 59.3 | 13.8 | AUC(0-t) [21]: 8440 ng·h/mL; Vd [22]: 0.32 L/kg; Activity (Mus musculus [23]): 56.8%; Activity (Mus musculus [24]): 4.2%
2 |  |  |  |  |  |  |  |  |  |  |  |  |  |  |  |  |  |  | CN(CCOc1ccc(CC2SC(=O)NC2=O)cc1)c1ccccn1 (stereo not given) [ROSIGLITAZONE] | 40.3 | 12.6 | Activity (Rattus norvegicus [25]): 14.2%; Activity (Rattus norvegicus [26]): 5.9%; Activity (Rattus norvegicus [27]): Non-Toxic; Activity (Rattus norvegicus [28]): Toxic; Activity (Rattus norvegicus [29]): Non-Toxic; Activity (Rattus norvegicus [30]): Non-Toxic; Activity (Rattus norvegicus [31]): Non-Toxic; Activity (Rattus norvegicus [32]): 24.7%; Activity (Rattus norvegicus [33]): Dose-dependent effect; Activity (Rattus norvegicus [34]): 8.9%
3 | 10.4 | 28 | 3.58 | 7100 | 40 | 100 | 100 | 7.9 (≈ 20.3 µM) | 510 | 2 | 34 | 1020 | 73 | 1110 | 2.4 | 1 | > 10000 | 91 | Cc1ccc(Oc2ccc3nc(COc4cccc(C(=O)O)c4)n(C)c3c2)cc1 | 58.6 | 13 | AUC(0-t) [21]: 4870 ng·h/mL; Vd [22]: 0.56 L/kg; Activity [35]: inactive; Activity (Mus musculus [23]): 48.4%; Activity (Mus musculus [24]): 4.8%
4 | 16.1 | 36 | 0.8 | 3870 | 134 | 100 | 95 | 5.7 (≈ 13.9 µM) | 700 | 2 | 65 | 5630 | 79 | 520 | 1.9 | 1 | > 10000 | 98 | Cn1c(COc2cccc(C(=O)O)c2)nc2ccc(Oc3cc(F)ccc3F)cc21 | 61.2 | 9.5 | AUC(0-t) [21]: 40900 ng·h/mL; Vd [22]: 0.39 L/kg; Activity (Mus musculus [23]): 51.2%; Activity (Mus musculus [24]): 3.3%
